In patent US20250223268A1, “4-Methylsulfonylbenzamide Compound, Preparation Method, Herbicidal Composition And Use” (Jiangsu Flag Chemical Industry Co., Ltd., priority 2022, published 2025):

How the values were obtained:
Experiment in all cases: Greenhouse herbicidal activity assay, post-emergence
Type in all cases: in vivo
Eclipta prostrata = settings: Post-emergence test, rate 150 g a.i./hm^2, grade by fresh weight inhibition rate; for pest or weed control at 150 g/ha: Eclipta prostrata, read-out: Control efficacy grade, Eclipta prostrata
In short: (§1)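 Foliar spray at 3-6 leaves; pot-grown in nutrient soil in growth chamber; air-dried post-spray. Read-out at 14-21 d: fresh weight inhibition, graded A (≥80% to 100%) down to E (<20%); NT = not tested.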

Echinochloa crusgalli = settings: Post-emergence test, rate 150 g a.i./hm^2, grade by fresh weight inhibition rate; for pest or weed control at 150 g/ha: Echinochloa crus-galli, read-out: Control efficacy grade, Echinochloa crusgalli
In short: as §1

Leptochloa chinensis = settings: Post-emergence test, rate 150 g a.i./hm^2, grade by fresh weight inhibition rate; for pest or weed control at 150 g/ha: Dinebra chinensis, read-out: Control efficacy grade, Leptochloa chinensis
In short: as §1

Digitaria sanguinalis = settings: Post-emergence test, rate 150 g a.i./hm^2, grade by fresh weight inhibition rate; for pest or weed control at 150 g/ha: Digitaria sanguinalis, read-out: Control efficacy grade, Digitaria sanguinalis
In short: as §1

Cyperus iria = settings: Post-emergence test, rate 150 g a.i./hm^2, grade by fresh weight inhibition rate; for pest or weed control at 150 g/ha: Cyperus iria, read-out: Control efficacy grade, Cyperus iria
In short: as §1

Compound: CCC[S+]([O-])c1c(S(C)(=O)=O)ccc(C(=O)Nc2nnco2)c1Cl (stereo not shown) [Compound 3-268, 2-chloro-4-(methylsulfonyl)-N-(1,3,4-oxadiazol-2-yl)-3-(propylsulfinyl)benzamide]
- pest or weed control at 150 g/ha (Eclipta prostrata): 80 to 100%
- pest or weed control at 150 g/ha (Echinochloa crusgalli): 80 to 100%
- pest or weed control at 150 g/ha (Leptochloa chinensis): 80 to 100%
- pest or weed control at 150 g/ha (Digitaria sanguinalis): 80 to 100%
- pest or weed control at 150 g/ha (Cyperus iria): 80 to 100%

Compound: CC(C)Sc1c(S(C)(=O)=O)ccc(C(=O)Nc2nnco2)c1Cl [Compound 3-272]
- Control efficacy grade, Eclipta prostrata (Eclipta prostrata): A (Fresh weight inhibition rate≥80% to 100%)
- Control efficacy grade, Echinochloa crusgalli (Echinochloa crusgalli): A (Fresh weight inhibition rate≥80% to 100%)
- Control efficacy grade, Leptochloa chinensis (Leptochloa chinensis): A (Fresh weight inhibition rate≥80% to 100%)
- Control efficacy grade, Digitaria sanguinalis (Digitaria sanguinalis): C (Fresh weight inhibition rate≥40% to <60%)
- Control efficacy grade, Cyperus iria (Cyperus iria): A (Fresh weight inhibition rate≥80% to 100%)

Compound: CCCCSc1c(S(C)(=O)=O)ccc(C(=O)Nc2nnco2)c1Cl [Compound 3-277]
- Control efficacy grade, Eclipta prostrata (Eclipta prostrata): A (Fresh weight inhibition rate≥80% to 100%)
- Control efficacy grade, Echinochloa crusgalli (Echinochloa crusgalli): A (Fresh weight inhibition rate≥80% to 100%)
- Control efficacy grade, Leptochloa chinensis (Leptochloa chinensis): A (Fresh weight inhibition rate≥80% to 100%)
- Control efficacy grade, Digitaria sanguinalis (Digitaria sanguinalis): C (Fresh weight inhibition rate≥40% to <60%)
- Control efficacy grade, Cyperus iria (Cyperus iria): A (Fresh weight inhibition rate≥80% to 100%)

Compound: CC(C)CSc1c(S(C)(=O)=O)ccc(C(=O)Nc2nnco2)c1Cl [Compound 3-293]
- Control efficacy grade, Eclipta prostrata (Eclipta prostrata): A (Fresh weight inhibition rate≥80% to 100%)
- Control efficacy grade, Echinochloa crusgalli (Echinochloa crusgalli): A (Fresh weight inhibition rate≥80% to 100%)
- Control efficacy grade, Leptochloa chinensis (Leptochloa chinensis): A (Fresh weight inhibition rate≥80% to 100%)
- Control efficacy grade, Digitaria sanguinalis (Digitaria sanguinalis): A (Fresh weight inhibition rate≥80% to 100%)
- Control efficacy grade, Cyperus iria (Cyperus iria): A (Fresh weight inhibition rate≥80% to 100%)

Compound: CS(=O)(=O)c1ccc(C(=O)Nc2nnco2)c(Cl)c1SCC1CC1 [Compound 3-298]
- Control efficacy grade, Eclipta prostrata (Eclipta prostrata): A (Fresh weight inhibition rate≥80% to 100%)
- Control efficacy grade, Echinochloa crusgalli (Echinochloa crusgalli): A (Fresh weight inhibition rate≥80% to 100%)
- Control efficacy grade, Leptochloa chinensis (Leptochloa chinensis): A (Fresh weight inhibition rate≥80% to 100%)
- Control efficacy grade, Digitaria sanguinalis (Digitaria sanguinalis): A (Fresh weight inhibition rate≥80% to 100%)
- Control efficacy grade, Cyperus iria (Cyperus iria): A (Fresh weight inhibition rate≥80% to 100%)

Compound: CS(=O)(=O)c1ccc(C(=O)Nc2nnco2)c(Cl)c1SC1CC1 [Compound 3-303]
- Control efficacy grade, Eclipta prostrata (Eclipta prostrata): A (Fresh weight inhibition rate≥80% to 100%)
- Control efficacy grade, Echinochloa crusgalli (Echinochloa crusgalli): A (Fresh weight inhibition rate≥80% to 100%)
- Control efficacy grade, Leptochloa chinensis (Leptochloa chinensis): A (Fresh weight inhibition rate≥80% to 100%)
- Control efficacy grade, Digitaria sanguinalis (Digitaria sanguinalis): A (Fresh weight inhibition rate≥80% to 100%)
- Control efficacy grade, Cyperus iria (Cyperus iria): B (Fresh weight inhibition rate≥260% to <80%)

Compound: CS(=O)(=O)c1ccc(C(=O)Nc2nnco2)c(Cl)c1SC1CCC1 [Compound 3-308]
- Control efficacy grade, Eclipta prostrata (Eclipta prostrata): A (Fresh weight inhibition rate≥80% to 100%)
- Control efficacy grade, Echinochloa crusgalli (Echinochloa crusgalli): A (Fresh weight inhibition rate≥80% to 100%)
- Control efficacy grade, Leptochloa chinensis (Leptochloa chinensis): A (Fresh weight inhibition rate≥80% to 100%)
- Control efficacy grade, Digitaria sanguinalis (Digitaria sanguinalis): A (Fresh weight inhibition rate≥80% to 100%)
- Control efficacy grade, Cyperus iria (Cyperus iria): A (Fresh weight inhibition rate≥80% to 100%)

Compound: CS(=O)(=O)c1ccc(C(=O)Nc2nnco2)c(Cl)c1SC1CCCC1 [Compound 3-313]
- Control efficacy grade, Eclipta prostrata (Eclipta prostrata): A (Fresh weight inhibition rate≥80% to 100%)
- Control efficacy grade, Echinochloa crusgalli (Echinochloa crusgalli): A (Fresh weight inhibition rate≥80% to 100%)
- Control efficacy grade, Leptochloa chinensis (Leptochloa chinensis): A (Fresh weight inhibition rate≥80% to 100%)
- Control efficacy grade, Digitaria sanguinalis (Digitaria sanguinalis): A (Fresh weight inhibition rate≥80% to 100%)
- Control efficacy grade, Cyperus iria (Cyperus iria): A (Fresh weight inhibition rate≥80% to 100%)

Compound: CS(=O)(=O)c1ccc(C(=O)Nc2nnco2)c(Cl)c1SC1CCCCC1 [Compound 3-318]
- Control efficacy grade, Eclipta prostrata (Eclipta prostrata): A (Fresh weight inhibition rate≥80% to 100%)
- Control efficacy grade, Echinochloa crusgalli (Echinochloa crusgalli): A (Fresh weight inhibition rate≥80% to 100%)
- Control efficacy grade, Leptochloa chinensis (Leptochloa chinensis): A (Fresh weight inhibition rate≥80% to 100%)
- Control efficacy grade, Digitaria sanguinalis (Digitaria sanguinalis): A (Fresh weight inhibition rate≥80% to 100%)
- Control efficacy grade, Cyperus iria (Cyperus iria): A (Fresh weight inhibition rate≥80% to 100%)

Compound: CS(=O)(=O)c1ccc(C(=O)Nc2nnco2)c(Cl)c1SCC(F)(F)F [Compound 3-323]
- Control efficacy grade, Eclipta prostrata (Eclipta prostrata): A (Fresh weight inhibition rate≥80% to 100%)
- Control efficacy grade, Echinochloa crusgalli (Echinochloa crusgalli): A (Fresh weight inhibition rate≥80% to 100%)
- Control efficacy grade, Leptochloa chinensis (Leptochloa chinensis): A (Fresh weight inhibition rate≥80% to 100%)
- Control efficacy grade, Digitaria sanguinalis (Digitaria sanguinalis): A (Fresh weight inhibition rate≥80% to 100%)
- Control efficacy grade, Cyperus iria (Cyperus iria): A (Fresh weight inhibition rate≥80% to 100%)

Compound: CS(=O)(=O)c1ccc(C(=O)Nc2nnco2)c(Cl)c1SCC(F)F [Compound 3-328]
- Control efficacy grade, Eclipta prostrata (Eclipta prostrata): A (Fresh weight inhibition rate≥80% to 100%)
- Control efficacy grade, Echinochloa crusgalli (Echinochloa crusgalli): A (Fresh weight inhibition rate≥80% to 100%)
- Control efficacy grade, Leptochloa chinensis (Leptochloa chinensis): A (Fresh weight inhibition rate≥80% to 100%)
- Control efficacy grade, Digitaria sanguinalis (Digitaria sanguinalis): A (Fresh weight inhibition rate≥80% to 100%)
- Control efficacy grade, Cyperus iria (Cyperus iria): A (Fresh weight inhibition rate≥80% to 100%)

Compound: C=CCSc1c(S(C)(=O)=O)ccc(C(=O)Nc2nnco2)c1Cl [Compound 3-338]
- Control efficacy grade, Eclipta prostrata (Eclipta prostrata): A (Fresh weight inhibition rate≥80% to 100%)
- Control efficacy grade, Echinochloa crusgalli (Echinochloa crusgalli): A (Fresh weight inhibition rate≥80% to 100%)
- Control efficacy grade, Leptochloa chinensis (Leptochloa chinensis): A (Fresh weight inhibition rate≥80% to 100%)
- Control efficacy grade, Digitaria sanguinalis (Digitaria sanguinalis): C (Fresh weight inhibition rate≥40% to <60%)
- Control efficacy grade, Cyperus iria (Cyperus iria): A (Fresh weight inhibition rate≥80% to 100%)

Compound: CS(=O)(=O)c1ccc(C(=O)Nc2nnco2)c(Cl)c1SCCC#N [Compound 3-373]
- Control efficacy grade, Eclipta prostrata (Eclipta prostrata): A (Fresh weight inhibition rate≥80% to 100%)
- Control efficacy grade, Echinochloa crusgalli (Echinochloa crusgalli): A (Fresh weight inhibition rate≥80% to 100%)
- Control efficacy grade, Leptochloa chinensis (Leptochloa chinensis): A (Fresh weight inhibition rate≥80% to 100%)
- Control efficacy grade, Digitaria sanguinalis (Digitaria sanguinalis): A (Fresh weight inhibition rate≥80% to 100%)
- Control efficacy grade, Cyperus iria (Cyperus iria): A (Fresh weight inhibition rate≥80% to 100%)

Compound: CCCSc1c(S(C)(=O)=O)ccc(C(=O)Nc2nnc(CC)o2)c1Cl [Compound 3-383]
- Control efficacy grade, Eclipta prostrata (Eclipta prostrata): A (Fresh weight inhibition rate≥80% to 100%)
- Control efficacy grade, Echinochloa crusgalli (Echinochloa crusgalli): A (Fresh weight inhibition rate≥80% to 100%)
- Control efficacy grade, Leptochloa chinensis (Leptochloa chinensis): B (Fresh weight inhibition rate≥260% to <80%)
- Control efficacy grade, Digitaria sanguinalis (Digitaria sanguinalis): B (Fresh weight inhibition rate≥260% to <80%)
- Control efficacy grade, Cyperus iria (Cyperus iria): A (Fresh weight inhibition rate≥80% to 100%)

Compound: CCc1nnc(NC(=O)c2ccc(S(C)(=O)=O)c([S+]([O-])C(C)C)c2Cl)o1 (stereo not shown) [Compound 3-389, 2-chloro-N-(5-ethyl-1,3,4-oxadiazol-2-yl)-3-(isopropylsulfinyl)-4-(methylsulfonyl)benzamide]
- pest or weed control at 150 g/ha (Eclipta prostrata): 80 to 100%
- pest or weed control at 150 g/ha (Echinochloa crusgalli): 80 to 100%
- pest or weed control at 150 g/ha (Leptochloa chinensis): 80 to 100%
- pest or weed control at 150 g/ha (Digitaria sanguinalis): 80 to 100%
- pest or weed control at 150 g/ha (Cyperus iria): 80 to 100%

Compound: CCc1nnc(NC(=O)c2ccc(S(C)(=O)=O)c(SCC3CC3)c2Cl)o1 [Compound 3-414]
- Control efficacy grade, Eclipta prostrata (Eclipta prostrata): A (Fresh weight inhibition rate≥80% to 100%)
- Control efficacy grade, Echinochloa crusgalli (Echinochloa crusgalli): A (Fresh weight inhibition rate≥80% to 100%)
- Control efficacy grade, Leptochloa chinensis (Leptochloa chinensis): A (Fresh weight inhibition rate≥80% to 100%)
- Control efficacy grade, Digitaria sanguinalis (Digitaria sanguinalis): A (Fresh weight inhibition rate≥80% to 100%)
- Control efficacy grade, Cyperus iria (Cyperus iria): A (Fresh weight inhibition rate≥80% to 100%)

Compound: CCc1nnc(NC(=O)c2ccc(S(C)(=O)=O)c(SC3CC3)c2Cl)o1 [Compound 3-419]
- Control efficacy grade, Eclipta prostrata (Eclipta prostrata): A (Fresh weight inhibition rate≥80% to 100%)
- Control efficacy grade, Echinochloa crusgalli (Echinochloa crusgalli): A (Fresh weight inhibition rate≥80% to 100%)
- Control efficacy grade, Leptochloa chinensis (Leptochloa chinensis): A (Fresh weight inhibition rate≥80% to 100%)
- Control efficacy grade, Digitaria sanguinalis (Digitaria sanguinalis): A (Fresh weight inhibition rate≥80% to 100%)
- Control efficacy grade, Cyperus iria (Cyperus iria): A (Fresh weight inhibition rate≥80% to 100%)
